The test has as its target PRMT5/MEP50 complex (Homo sapiens (Human), UniProt O14744). The test is described as follows: Flash plate assay. Format: biochemical. Conditions: read-out: Flash Plate IC50. The procedure:
Flash plate assay. Compounds were solubilized, and 3-fold diluted in 100% DMSO. […] Standard reactions were performed in a total volume of 30 μl in assay buffer, with 300 nM histone H4 based AcH4-23 (Anaspec: AS-65002) as substrate. To this was added the PRMT5/MEP50 complex diluted to provide a final assay concentration of 2.5 nM and the compounds were allowed to preincubate for 20 minutes at 37° C. The reaction was initiated by adding S-[3H-methyl]-adenosyl-L-methionine (PerkinElmer: NET155001MC) to final concentration of 1 μM. Following a 30 minutes incubation at 37° C., the reaction was stopped by adding 25 μL of 8M Guanidine HCl. Prepare streptavidin YSI SPA beads (Perkinelmer: RPNQ0012) at 0.3 mg/mL in assay buffer. To each reaction, add 150 μL of SPA beads suspension, and incubated while shaking at room temperature for 30 minutes. The plate was centrifuged at 100×g for 30 second before reading in a scintillation counter. IC50 values were determined by fitting the data to the standard 4 parameters with Hill Slope using GraphPad Prism software. This procedure produced the Flash Plate data in Table 7.

PRMT5/MEP50 complex, sequence (O14744 whole entry): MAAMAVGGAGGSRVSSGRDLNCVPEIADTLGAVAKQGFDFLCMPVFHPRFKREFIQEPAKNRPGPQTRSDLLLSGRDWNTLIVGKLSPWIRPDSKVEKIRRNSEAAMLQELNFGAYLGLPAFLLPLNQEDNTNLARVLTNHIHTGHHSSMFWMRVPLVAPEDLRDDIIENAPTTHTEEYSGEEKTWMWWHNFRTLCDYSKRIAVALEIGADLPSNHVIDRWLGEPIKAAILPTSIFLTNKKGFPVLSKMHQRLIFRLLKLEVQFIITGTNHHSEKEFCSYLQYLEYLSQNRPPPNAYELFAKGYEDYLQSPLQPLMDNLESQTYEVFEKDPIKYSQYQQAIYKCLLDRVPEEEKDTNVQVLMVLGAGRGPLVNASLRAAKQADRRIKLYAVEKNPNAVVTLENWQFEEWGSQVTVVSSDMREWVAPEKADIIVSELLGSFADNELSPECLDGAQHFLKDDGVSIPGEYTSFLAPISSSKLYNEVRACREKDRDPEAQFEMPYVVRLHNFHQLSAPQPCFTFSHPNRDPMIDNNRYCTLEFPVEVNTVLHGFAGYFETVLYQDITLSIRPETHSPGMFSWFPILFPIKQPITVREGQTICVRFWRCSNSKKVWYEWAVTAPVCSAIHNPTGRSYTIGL
PRMT5/MEP50 complex, sequence (Q9BQA1 whole entry partner): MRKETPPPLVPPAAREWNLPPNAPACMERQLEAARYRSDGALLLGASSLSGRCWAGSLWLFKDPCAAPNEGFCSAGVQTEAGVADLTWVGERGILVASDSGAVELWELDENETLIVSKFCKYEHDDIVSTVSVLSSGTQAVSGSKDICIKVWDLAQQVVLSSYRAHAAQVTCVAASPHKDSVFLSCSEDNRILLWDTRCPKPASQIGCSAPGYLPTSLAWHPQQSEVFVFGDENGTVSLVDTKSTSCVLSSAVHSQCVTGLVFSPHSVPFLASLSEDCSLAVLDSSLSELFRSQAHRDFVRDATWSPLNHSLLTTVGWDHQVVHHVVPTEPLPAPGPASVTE

As for `CN(C)C(=O)Nc1ncnc2c1ccn2[C@@H]1O[C@H]([C@H](O)c2ccc3c(c2)CC3)[C@@H](O)[C@H]1O` [Example 23, 3-(7-((2R,3R,4S,5R)-5-((R)-bicyclo[4.2.0]octa-1(6),2,4-trien-3-yl(hydroxy)methyl)-3,4-dihydroxytetrahydrofuran-2-yl)-7H-pyrrolo[2,3-d]pyrimidin-4-yl)-1,1-dimethylurea], the concentration for half-maximal inhibition (IC50) (usually the concentration needed to halve the response being measured) amounted to 697 nM. Consider `C[C@](O)(c1ccc2c(c1)CC2)[C@H]1O[C@@H](n2ccc3c(N)ncnc32)[C@H](O)[C@@H]1O` [Example 39, (2R,3R,4S,5S)-2-(4-amino-7H-pyrrolo [2,3-d]pyrimidin-7-yl)-5-((S)-1-(bicyclo[4.2.0]octa-1(6),2,4-trien-3-yl)-1-hydroxyethyl)tetrahydrofuran-3,4-diol], for which the IC50 is 1240 nM. With `C=C(C)c1ncnc2c1ccn2[C@@H]1O[C@H]([C@H](O)c2ccc3c(c2)CC3)[C@@H](O)[C@H]1O` [Example 40, (2R,3S,4R,5R)-2-((R)-bicyclo[4.2.0]octa-1(6),2,4-trien-3-yl(hydroxy)methyl)-5-(4-(prop-1-en-2-yl)-7H-pyrrolo[2,3-d]pyrimidin-7-yl)tetrahydrofuran-3,4-diol] the figure was 1030 nM; with `CC(C)c1ncnc2c1ccn2[C@@H]1O[C@H]([C@H](O)c2ccc3c(c2)CC3)[C@@H](O)[C@H]1O` [Example 41, (2R,3S,4R,5R)-2-((R)-bicyclo[4.2.0]octa-1(6),2,4-trien-3-yl(hydroxy)methyl)-5-(4-isopropyl-7H-pyrrolo[2,3-d]pyrimidin-7-yl)tetrahydrofuran-3,4-diol], 230 nM.

As to `CCCCc1ncnc2c1ccn2[C@@H]1O[C@H]([C@H](O)c2ccc3c(c2)CC3)[C@@H](O)[C@H]1O` [Example 42, (2R,3S,4R,5R)-2-((R)-bicyclo[4.2.0]octa-1,3,5-trien-3-yl(hydroxy)methyl)-5-(4-butyl-7H-pyrrolo[2,3-d]pyrimidin-7-yl)tetrahydrofuran-3,4-diol], the IC50 was determined as 392 nM. The result for `OCc1ncnc2c1ccn2[C@@H]1O[C@H]([C@H](O)c2ccc3c(c2)CC3)[C@@H](O)[C@H]1O` [Example 43, (2R,3S,4R,5R)-2-((R)-bicyclo[4.2.0]octa-1,3,5-trien-3-yl(hydroxy)methyl)-5-(4-(hydroxymethyl)-7H-pyrrolo[2,3-d]pyrimidin-7-yl)tetrahydrofuran-3,4-diol] reads 181 nM; that for `C=Cc1ncnc2c1ccn2[C@@H]1O[C@H]([C@H](O)c2ccc3c(c2)CC3)[C@@H](O)[C@H]1O` [Example 46, (2R,3S,4R,5R)-2-((R)-bicyclo[4.2.0]octa-1(6),2,4-trien-3-yl(hydroxy)methyl)-5-(4-vinyl-7H-pyrrolo[2,3-d]pyrimidin-7-yl)tetrahydrofuran-3,4-diol], 2060 nM; that for `Cc1ncnc2c1ccn2[C@@H]1O[C@H]([C@@H](O)c2ccc3c(c2)CC3)[C@@H](O)[C@H]1O` [Example 47, (2R,3S,4R,5R)-2-((S)-bicyclo[4.2.0]octa-1,3,5-trien-3-yl(hydroxy)methyl)-5-(4-methyl-7H-pyrrolo[2,3-d]pyrimidin-7-yl)tetrahydrofuran-3,4-diol], 274 nM. With `CCOCc1ncnc2c1ccn2[C@@H]1O[C@H]([C@H](O)c2ccc3c(c2)CC3)[C@@H](O)[C@H]1O` [Example 50, (2R,3S,4R,5R)-2-((R)-bicyclo[4.2.0]octa-1(6),2,4-trien-3-yl(hydroxy)methyl)-5-(4-(ethoxymethyl)-7H-pyrrolo[2,3-d]pyrimidin-7-yl)tetrahydrofuran-3,4-diol] the figure was 2520 nM.

Consider `O[C@@H]1[C@H](O)[C@@H]([C@H](O)c2ccc3c(c2)CC3)O[C@H]1n1ccc2c(CCl)ncnc21` [Example 51, (2R,3S,4R,5R)-2-((R)-bicyclo[4.2.0]octa-1(6),2,4-trien-3-yl(hydroxy)methyl)-5-(4-(chloromethyl)-7H-pyrrolo[2,3-d]pyrimidin-7-yl)tetrahydrofuran-3,4-diol], for which the IC50 is 51 nM.
